# No end group written: not given here.
# What was measured:
# APEC O78 membrane [1] = experiment: Transmission electron microscopy; type: cell-based, E. coli; conditions: 10×MIC, 3 h
# Protocol: Transmission electron microscopy: To visualize the effect of peptides (P1, P2, and P3) on APEC membrane, transmission electron microscopy (TEM) was performed as described previously. The peptide treatment was performed as described above. […] After incubation, cells were fixed overnight at room temperature with 3% glutaraldehyde & 2% paraformaldehyde), washed, and postfixed with 1% osmium tetroxide (OsO4). The cells were then dehydrated with graded ethanol series and embedding was performed using Embed 812 Kit (Electron Microscopy Sciences, PA). Ultrathin (70 nm) sections were prepared on formvar-carbon coated grids and stained with uranyl acetate and lead citrate. Microscopy was performed using Hitachi H-7500 microscope at MCIC. Untreated bacterial culture was used as control.
# S. typhimurium = experiment: P1 and P2 in drinking water, S. typhimurium infected chickens; type: in vivo; conditions: 100 mg/L in drinking water, 7 dpi
# Protocol: Both the P1 and P2 at 200 mg/L and 100 mg/L concentrations reduced S. typhimurium colonization by 0.78 (p<0.05) and 0.69 (p<0.05) log CFU/gm, respectively.
# APEC O78 = experiment: Efficacy of peptides in chickens (oral, twice a day); type: in vivo; conditions: for Reduction of APEC colonization in cecum: 7 dpi
# Protocol: Peptides were administered through orally twice a day from day 1 to day 7 either at 50 mg/kg or 100 mg/kg dose. On day 2, chickens were infected orally with Rif^γ APEC O78 (1-2×10^9 CFU/chicken). At day 9, chickens were euthanized, necropsied and cecum and internal organs (lung, liver, heart, and kidney) were processed for quantification of APEC load. The body weight of chickens was measured at day 9.
# Efficacy of peptides in chickens: Animal study was approved by The Ohio State University Institutional Animal Care and Use Committee (IACUC, protocol #2010 A00000149). Chickens were euthanized using CO2 following American Veterinary Medical Association (AVMA) guidelines. Standard animal husbandry practices were followed throughout the experiment. Feed and water were provided ad libitum. The efficacy of peptides (P1, P2, and P3) were assessed at 50 mg/kg and 100 mg/kg doses in two successive experiments using commercial broiler chickens (n=10/group) (Cobb & Ross; Case Farms Ohio Hatchery, Strasburg, OH). […] Briefly, peptides dissolved in water [5 mg (50 mg/kg) or 10 mg (100 mg/kg) in 100 μL] were administered orally twice a day from day 1 (one day before APEC infection) today 7 (5 days post-infection; dpi). On day 2, chickens were infected orally with rifampicin resistant (Rif) APEC O78(27) (1-2×10^9 CFU/chicken). At 7 dpi (day 9), chickens were euthanized, necropsied and cecum and internal organs (lung, liver, heart, and kidney) were assessed for APEC load by plating on MacConkey agar plates containing 50 μg/mL rifampicin. The body weight of chickens was measured at the day of necropsy (day 9). The positive (PC; infected but not treated) and negative (NC; non-infected and non-treated) control chickens were included in both experiments. The statistical significance (P<0.05) of treatment on reduction of APEC load and effect on body weight was calculated using one-way ANOVA followed by Tukey's post-hoc test. […] Bacteria were grown in LB media and MICs were determined as above against respective peptides.
# biofilm protected APEC = experiment: MBEC-HTP assay; type: cell-based, E. coli; conditions: at MICs, 18 h; untreated 7.54 ± 0.07
# Protocol: MBEC™-HTP assay: To test the efficacy of the peptides (P1, P2, and P3) against biofilm protected APEC, Innovotech's MBEC Assay® was conducted as described previously(27). Briefly, 150 μL of 0.05 OD600 (5×10^7 CFU/mL) adjusted APEC suspension in LB media was aliquoted into the wells of MBEC™ device containing polystyrene pegs and incubated for 36 h on a rocker platform at 37° C. to allow the biofilm formation. After biofilm formation, the pegs were washed to remove loosely adherent planktonic bacteria and transferred to a new 96-well plate (challenge plate) containing peptides at MICs in 200 μL diluted (25%) LB media. The diluted LB media mimics the minimal media which stimulates biofilm formation and maintenance. The plate was incubated for 18 h at 37° C. with rotation at 150 rpm. Sterile media and DMSO (solvent) were used as controls. Following incubation, the MICs of peptides in challenge plate were recorded. The peptides exposed pegs were transferred to new 96-well plate containing PBS and sonicated for 30 mins to disrupt the biofilm. The sonicated suspensions were then ten-fold serially diluted and plated on LB agar plates to enumerate the biofilm protected bacteria and the minimum biofilm eradication concentration (MBEC) of peptides were determined. Three independent experiments were conducted.
# APEC O78 membrane [2] = experiment: Bacterial cytological profiling (confocal microscopy); type: cell-based, E. coli; conditions: 5×MIC, 3 h
# Protocol: Bacterial cytological profiling (BCP): To identify the mode of action (MOA) of peptides (P1, P2, and P3), BCP approach was used as described previously. […] Following incubation, cultures were centrifuged, and bacteria was resuspended in 100 μL sterile water. FM4-64 (1 μg/mL; Invitrogen™ Molecular Probes™) and Syto-9 (5 μM; Invitrogen™ Molecular Probes™) stains were added to the bacterial cultures and incubated at 4° C. for 45 mins with shaking at 150 rpm. The stained bacteria were centrifuged, pelleted, and resuspended in 10 μL sterile water. The bacterial suspension (3 μL) was transferred onto glass slides containing thin layer of 1.2% agar and 20% LB media for confocal microscopy. Microscopy was performed using Leica TCS SP6 confocal scanning microscope (FM4-64-excitation 515 nm and emission 640 nm: Syto-9-excitation 485 nm and emission 498 nm) at Molecular and Cellular Imaging Center (MCIC), The Ohio State University (mcic.osu.edu/microscopy). Untreated bacterial culture was used as control.
# ST membrane = experiment: Transmission electron microscopy; type: cell-based, Salmonella enterica; conditions: 10×MIC, 3 h
# Protocol: ST was treated with 10× peptide MIC and incubated for 3 h.
# Transmission electron microscopy: To further visually analyze the inhibitory effects of P1 and P2 on ST, transmission electron microscopy (TEM) was performed as described previously. […] After which, cells were fixed overnight with 3% glutaraldehyde and 2% paraformaldehyde at room temperature. Cells were then washed and postfixed with 1% osmium tetroxide (OsO4). The washed cells were then dehydrated, with graded ethanol, and embedded with Embed 812 kit (Electron Microscopy Sciences, Pa). Ultrathin (70 nm) sections were prepared on formvar-carbon coated grids and stained with uranyl acetate and lead citrate. Untreated ST was used as a control. TEM was conducted at MCIC using the Hitachi H-7500 microscope.
substance,measurement,setting,value
"PDENK [Peptide P2, PDENK]",APEC membrane in TEM,APEC O78 membrane [1],"membrane either sloughed (or shed), ruptured, or flaccid"
same,Reduction of S. typhimurium colonization in ceca,S. typhimurium,0.69 log CFU/gm
same,Reduction of APEC colonization in cecum,APEC O78; 50 mg/kg dose,0.9 logs
same,Number of chickens positive for APEC in internal organs,APEC O78; 100 mg/kg dose,reduced the number of chickens positive for APEC
same,Reduction of APEC colonization in cecum,APEC O78; 100 mg/kg dose,1.3 logs
same,Biofilm protected APEC (log CFU/mL),biofilm protected APEC,0.00 ± 0.00 log CFU/mL
same,APEC membrane in confocal microscopy (FM4-64/SYTO-9),APEC O78 membrane [2],no or minimally visible APEC membrane
same,ST membrane in TEM,ST membrane,disruption of the membrane characterized by sloughed or flaccid appearance

# Reference: US20240181000A1, “LGG-DERIVED PEPTIDES AND METHODS OF USE THEREOF” (Ohio State Innovation Foundation, priority 2021, published 2024)
